Consider 23 compounds from US9920088B2, “Triterpene derivative and its anti-influenza use” (Peking University, priority 2012, dated 2018).

The test system of one series is MDCK cells. Particulars: dog, 48 h, 50 μM.
For series [1], the system named is influenza virus A/WSN/33(H1N1). The experiment in a line: Cytopathic effect (CPE) inhibition assay, WSN virus in MDCK cells. It is filed as cell-based. Particulars: for Viral Infectivity (%): lower = better inhibition; for anti-influenza virus activity: WSN, CPE; for inhibition at 50 µM: MDCK, Table 9, protective rate against cytopathy, read-out: IAV inhibition rate (%). (Cytopathic effects are the visible damage that an infection or toxin causes in cultured cells.)

The mark [2] stands for this setting: Table 8, 50 μM, WSN MOI=1, 48 h.
Where [3] appears, read: Table 6, 50 μM, WSN MOI=1, 48 h.

A word on the inhibition: it is the drop in the measured response relative to a control, in per cent.

`CC(=O)OCC1O[C@H](NC(=O)[C@]23CCC(C)(C)CC2C2=CCC4[C@@]5(C)CCC(=O)C(C)(C)C5CC[C@@]4(C)[C@]2(C)CC3=O)C(OC(C)=O)C(OC(C)=O)[C@@H]1OC(C)=O` (stereo partly drawn) [Compound Y3]: in the series with MDCK cells, the “Cell viability (%)” value was 80.8%. Also, in series [1] (setting [2]), the “Viral Infectivity (%)” value came to 16.3%. The “anti-influenza virus activity” value in series [1] (50 μM) is given as “significant anti-influenza virus activity”.
Take `CC(=O)OCC1O[C@H](OC(=O)[C@]23CCC(C)(C)C[C@H]2C2=CC[C@@H]4[C@@]5(C)CC[C@H](O)C(C)(C)C5CC[C@@]4(C)[C@]2(C)CC3O)C(OC(C)=O)C(OC(C)=O)[C@H]1OC(C)=O` (stereo partly drawn) [Compound Q1, 3β,16α-dihydroxy-olean-12-en-28-oic acid-28-O-(2,3,4,6-tetra-O-acetyl-β-D-glucoside)]: the “Cell viability(%)” value with MDCK cells came to 110.2%. Also, the “Viral Infectivity (%)” value in series [1] (setting [3]) was found to be 78.7%. Besides, the “anti-influenza virus activity” value in series [1] (50 μM) is “some anti-influenza virus activity”.
For the compound `CC(=O)OCC1O[C@H](NC(=O)[C@]23CC[C@@H](C)[C@H](C)C2C2=CCC4[C@@]5(C)CC[C@H](O)C(C)(C)C5CC[C@@]4(C)[C@]2(C)CC3)C(OC(C)=O)C(OC(C)=O)[C@H]1OC(C)=O` (stereo partly drawn) [Compound Y15, 3β-hydroxy-urs-12-en-28-oic acid-28-N-(2,3,4,6-tetra-O-acetyl-β-D-mannoside)], in series [1] (50 μM), the inhibition at 50 µM was found to be 39.8 ± 3.6%.
As for `CC(=O)OCC1O[C@H](OC(=O)[C@]23CCC(C)(C)C[C@H]2C2=CC[C@@H]4[C@@]5(C)CC[C@H](O)C(C)(C)[C@@H]5CC[C@@]4(C)[C@]2(C)CC3O)C(OC(C)=O)C(OC(C)=O)[C@@H]1OC(C)=O` (stereo partly drawn) [Compound Q8, 3β,16α-dihydroxy-olean-12-en-28-oic acid-28-O-(2,3,4,6-tetra-O-acetyl-α-D-galactoside)], in the series with MDCK cells, the “Cell viability(%)” value came out at 102.6%. Besides, in series [1] (setting [3]), the “Viral Infectivity (%)” value worked out at 109.7%.
In the case of `CC(=O)OC1C(OC(C)=O)[C@H](OC(C)=O)CO[C@@H]1OC(=O)[C@]12CCC(C)(C)C[C@H]1C1=CC[C@@H]3[C@@]4(C)CC[C@H](O)C(C)(C)[C@@H]4CC[C@@]3(C)[C@]1(C)CC2O` (stereo partly drawn) [Compound Q5, 3β,16α-dihydroxy-olean-12-en-28-oic acid-28-O-(2,3,4-tri-O-acetyl-β-D-arabinoside)], the “Cell viability(%)” value with MDCK cells is reported as 100.9%. For the same compound, the “Viral Infectivity (%)” value in series [1] (setting [3]) was found to be 107.5%.
For the compound “echinocystic acid [EA, reference compound]”, the “Viral Infectivity (%)” value in series [1] (Table 6, […]) was 67.9%. Moreover, the “anti-influenza virus activity” value in series [1] (50 μM) is recorded as “some anti-influenza virus activity”.
In the case of `CC1(C)CC[C@]2(C(=O)N[C@H]3OC(CO)[C@@H](O)C(O)C3O)CC[C@]3(C)C(=CCC4[C@@]5(C)CCC(=O)C(C)(C)C5CC[C@]43C)C2C1` (stereo partly drawn) [Compound Y10, 3-carbonyl-olean-12-en-28-oic acid-28-N-(β-D-galactoside)], the inhibition at 50 µM in series [1] (50 μM) is 4.84 ± 3.08%.
For the compound `CC1(C)CC[C@]2(C(=O)O[C@H]3OC(CO)[C@H](O[C@H]4OC(CO)[C@H](O)C(O)C4O)C(O)C3O)C(O)C[C@]3(C)C(=CC[C@@H]4[C@@]5(C)CC[C@H](O)C(C)(C)[C@@H]5CC[C@]43C)[C@@H]2C1` (stereo partly drawn) [Compound Q14, 3β,16α-dihydroxy-olean-12-en-28-oic acid-28-O-(β-D-cellobioside)], the “Cell viability(%)” value with MDCK cells came to 98.3%. In addition, the “Viral Infectivity (%)” value in series [1] (setting [3]) was 154.4%.
`CC1(C)CC[C@]2(C(=O)N[C@H]3OC(CO)[C@@H](O)C(O)C3O)C(=O)C[C@]3(C)C(=CCC4[C@@]5(C)CCC(=O)C(C)(C)C5CC[C@]43C)C2C1` (stereo partly drawn) [Compound Y4, 3,16-dione-olean-12-en-28-oic acid-28-N-(β-D-galactoside)]: in the series on MDCK cells, the “Cell viability (%)” value is listed as 98.5%. For the same compound, in series [1] (setting [2]), the “Viral Infectivity (%)” value worked out at 31.1%.
Take `CC1(C)CC[C@]2(C(=O)O[C@H]3OC(CO)[C@H](O[C@H]4OC(CO)[C@@H](O)C(O)C4O)C(O)C3O)C(O)C[C@]3(C)C(=CC[C@@H]4[C@@]5(C)CC[C@H](O)C(C)(C)[C@@H]5CC[C@]43C)[C@@H]2C1` (stereo partly drawn) [Compound Q11, 3β,16α-dihydroxy-olean-12-en-28-oic acid-28-O-(β-D-lactoside)]: in the series on MDCK cells, the “Cell viability(%)” value is 92.8%. The “Viral Infectivity (%)” value in series [1] (setting [3]) came out at 82.6%. Also, in series [1] (50 μM), the “anti-influenza virus activity” value is “some anti-influenza virus activity”.
For `CC(=O)OCC1O[C@@H](O[C@H]2C(COC(C)=O)O[C@H](OC(=O)[C@]34CCC(C)(C)C[C@H]3C3=CC[C@@H]5[C@@]6(C)CC[C@H](O)C(C)(C)[C@@H]6CC[C@@]5(C)[C@]3(C)CC4O)C(OC(C)=O)C2OC(C)=O)C(OC(C)=O)C(OC(C)=O)[C@H]1OC(C)=O` (stereo partly drawn) [Compound Q12, 3β,16α-dihydroxy-olean-12-en-28-oic acid-28-O-(hepta-O-acetyl-β-D-maltoside)], in that order: 93.3%, 80.1% and “some anti-influenza virus activity”.
Take `CC1(C)CC[C@]2(C(=O)O[C@H]3OC(CO)[C@H](O)C(O)C3O)C(O)C[C@]3(C)C(=CC[C@@H]4[C@@]5(C)CC[C@H](O)C(C)(C)C5CC[C@]43C)[C@@H]2C1` (stereo partly drawn) [Compound Q2, 3β,16α-dihydroxy-olean-12-en-28-oic acid-28-O-(β-D-glucoside)]: in the series with MDCK cells, the “Cell viability(%)” value was found to be 101.1%. For the same compound, the “Viral Infectivity (%)” value in series [1] (setting [3]) stood at 76.2%. Also, the “anti-influenza virus activity” value in series [1] (50 μM) is reported as “some anti-influenza virus activity”.
Consider `CC(=O)OCC1O[C@H](NC(=O)[C@]23CC[C@@H](C)[C@H](C)C2C2=CCC4[C@@]5(C)CC[C@H](O)C(C)(C)C5CC[C@@]4(C)[C@]2(C)C[C@H]3O)C(OC(C)=O)C(OC(C)=O)[C@@H]1OC(C)=O` (stereo partly drawn) [Compound Y13, 3β-hydroxy-urs-12-en-28-oic acid-28-N-(2,3,4,6-tetra-O-acetyl-β-D-galactoside)], for which, in series [1] (50 μM), the inhibition at 50 µM was 76.9 ± 5.53% and the “anti-influenza virus activity” value is given as “significant anti-influenza virus activity higher than Q9”.
Regarding `CC(=O)OC1C(OC(C)=O)[C@@H](OC(C)=O)CO[C@@H]1OC(=O)[C@]12CCC(C)(C)C[C@H]1C1=CC[C@@H]3[C@@]4(C)CC[C@H](O)C(C)(C)[C@@H]4CC[C@@]3(C)[C@]1(C)CC2O` (stereo partly drawn) [Compound Q3, 3β,16α-dihydroxy-olean-12-en-28-oic acid-28-O-(2,3,4-tri-O-acetyl-β-D-xyloside)], in the series on MDCK cells, the “Cell viability(%)” value was found to be 100.4%. Moreover, the “Viral Infectivity (%)” value in series [1] (setting [3]) is 71.1%. Further, the “anti-influenza virus activity” value in series [1] (50 μM) was “some anti-influenza virus activity”.
Regarding `CC(=O)OCC1O[C@H](NC(=O)[C@]23CCC(C)(C)CC2C2=CCC4[C@@]5(C)CC[C@H](O)C(C)(C)C5CC[C@@]4(C)[C@]2(C)C[C@H]3O)C(OC(C)=O)C(OC(C)=O)[C@@H]1OC(C)=O` (stereo partly drawn) [Compound Y1, 3β,16α-dihydroxy-olean-12-en-28-oic acid-28-N-(2,3,4,6-tetra-O-acetyl-β-D-galactoside)], in the series with MDCK cells, the “Cell viability (%)” value was 84.8%. For the same compound, the “Viral Infectivity (%)” value in series [1] (setting [2]) worked out at 16.4%. Further, the “anti-influenza virus activity” value in series [1] (50 μM) is “significant anti-influenza virus activity”.
Consider `CC1(C)CC[C@]2(C(=O)O[C@H]3OC[C@@H](O)C(O)C3O)C(O)C[C@]3(C)C(=CC[C@@H]4[C@@]5(C)CC[C@H](O)C(C)(C)[C@@H]5CC[C@]43C)[C@@H]2C1` (stereo partly drawn) [Compound Q6, 3β,16α-dihydroxy-olean-12-en-28-oic acid-28-O-(β-D-arabinoside)], for which the “Cell viability(%)” value with MDCK cells came to 38.4%.
As to `C[C@@H]1CC[C@]2(C(=O)N[C@H]3OC(CO)[C@@H](O)C(O)C3O)CC[C@]3(C)C(=CCC4[C@@]5(C)CC[C@H](O)C(C)(C)C5CC[C@]43C)C2[C@H]1C` (stereo partly drawn) [Compound Y14, 3β-hydroxy-urs-12-en-28-oic acid-28-N-(β-D-galactoside)], in series [1] (50 μM), the inhibition at 50 µM was 62.2 ± 2.96% and the “anti-influenza virus activity” value was “significant anti-influenza virus activity higher than Q9”.
Consider `CC(=O)OCC1O[C@H](NC(=O)[C@]23CCC(C)(C)CC2C2=CCC4[C@@]5(C)CC[C@H](O)C(C)(C)C5CC[C@@]4(C)[C@]2(C)CC3)C(OC(C)=O)C(OC(C)=O)[C@H]1OC(C)=O` (stereo partly drawn) [Compound Y7, 3β-hydroxy-olean-12-en-28-oic acid-28-N-(2,3,4,6-tetra-O-acetyl-β-D-mannoside)], for which the “Cell viability (%)” value in the series with MDCK cells is recorded as 82.3%. The “Viral Infectivity (%)” value in series [1] (setting [2]) amounted to 17.4%. In addition, the “anti-influenza virus activity” value in series [1] (50 μM) is reported as “significant anti-influenza virus activity”.
On to `CC1(C)CC[C@]2(C(=O)N[C@H]3OC(CO)[C@H](O)C(O)C3O)CC[C@]3(C)C(=CCC4[C@@]5(C)CC[C@H](O)C(C)(C)C5CC[C@]43C)C2C1` (stereo partly drawn) [Compound Y8, 3β-hydroxy-olean-12-en-28-oic acid-28-N-(β-D-galactoside)], for which the “Cell viability (%)” value in the series on MDCK cells is reported as 85.0%. Moreover, in series [1] (setting [2]), the “Viral Infectivity (%)” value is recorded as 19.5%. Also, in series [1] (50 μM), the “anti-influenza virus activity” value is on record as “significant anti-influenza virus activity”.
For the compound `CC1(C)CC[C@]2(C(=O)O[C@H]3OC[C@H](O)C(O)C3O)C(O)C[C@]3(C)C(=CC[C@@H]4[C@@]5(C)CC[C@H](O)C(C)(C)[C@@H]5CC[C@]43C)[C@@H]2C1` (stereo partly drawn) [Compound Q4, 3β,16α-dihydroxy-olean-12-en-28-oic acid-28-O-(β-D-xyloside)], the “Cell viability(%)” value in the series on MDCK cells was determined as 0.1%.
In the case of `CC(=O)OCC1O[C@H](NC(=O)[C@]23CCC(C)(C)CC2C2=CCC4[C@@]5(C)CC[C@H](O)C(C)(C)C5CC[C@@]4(C)[C@]2(C)C[C@H]3O)C(OC(C)=O)C(OC(C)=O)[C@H]1OC(C)=O` (stereo partly drawn) [Compound Y11, 3β,16α-dihydroxy-olean-12-en-28-oic acid-28-N-(2,3,4,6-tetra-O-acetyl-β-D-mannoside)], the inhibition at 50 µM in series [1] (50 μM) came out at 26.8 ± 3.46%.
Consider `CC(=O)OCC1O[C@H](NC(=O)[C@]23CCC(C)(C)CC2C2=CCC4[C@@]5(C)CCC(=O)C(C)(C)C5CC[C@@]4(C)[C@]2(C)CC3)C(OC(C)=O)C(OC(C)=O)[C@@H]1OC(C)=O` (stereo partly drawn) [Compound Y9, 3-carbonyl-olean-12-en-28-oic acid-28-N-(2,3,4,6-tetra-O-acetyl-β-D-galactoside)], for which the inhibition at 50 µM in series [1] (50 μM) came out at 32.2 ± 1.81%.
Still for that read-out and setting: the value for `C[C@@H]1CC[C@]2(C(=O)N[C@H]3OC(CO)[C@H](O)C(O)C3O)CC[C@]3(C)C(=CCC4[C@@]5(C)CC[C@H](O)C(C)(C)C5CC[C@]43C)C2[C@H]1C` (stereo partly drawn) [Compound Y16, 3β-hydroxy-urs-12-en-28-oic acid-28-N-(β-D-mannoside)] was 48.2 ± 4.22%.
